One experiment relates to IL-2 in T-lymphocytes. The settings on record: reference not given; cited from earlier work. From the text: 14-3-3s are ubiquitous adaptor proteins that are involved in cell signaling, cell cycle progression and apoptosis as well as protein-protein interaction and cellular transport (Aghazadeh and Papadopoulos, [2016]). The 14-3-3 family is often described as a chimera, since knockout of single isoforms may remain without or with minor phenotypic changes due to functional rescue through the recruitment of other family members. […] Many tumor suppressors or oncogenes are regulated by 14-3- ...

In a further experiment the test system is EAE disease in mice. The settings on record: cited from earlier work. From the text: 14-3-3s are ubiquitous adaptor proteins that are involved in cell signaling, cell cycle progression and apoptosis as well as protein-protein interaction and cellular transport (Aghazadeh and Papadopoulos, [2016]). The 14-3-3 family is often described as a chimera, since knockout of single isoforms may remain without or with minor phenotypic changes due to functional rescue through the recruitment of other family members. […] Many tumor suppressors or oncogenes are regulated by 14-3- ... || Meanwhile, plant-derived cyclotides are recognized for their pharmaceutical potential. […] Additionally, cyclotides are considered as promising templates for the design of stabilized, orally active peptide epitopes (Jagadish and Camarero, [2010]; Craik et al., [2012]). The cystine-knot motif is capable of tolerance to the incorporation of several amino acid long sequences without impacting its endogenous structure and stability. Using this ...

The subject of experiment [1] is 14-3-3 proteins / 25 kDa protein band in murine splenocyte lysates. Put plainly: photo-affinity pull down, splenocyte lysate, with competitors. To be noted: competitors at 100-fold molar excess versus bait [T20K,W23Bpa]kB1, in-gel digestion and proteomics. The format is binding, mouse. The method, then:
Splenocytes or Jurkat cells were lysed with 25 mM Tris-HCl pH 7.4, 40 mM KCl, 2.5 mM MgSO4 2.5 mM CaCl2, 2% (v/v) glycerol, 1 mM EDTA under repeated freeze-thaw cycles and 10 min sonification. All experiments were performed in buffer with 1x complete protease inhibitor cocktail (Hoffman-La Roche, Basel, Switzerland). Cell membranes and debris were pelleted for 30 min at 16,000 × g and the supernatant corresponds to the “soluble cell lysate.” Protein concentration was determined using a bicinchoninic acid assay kit (Thermo Scientific) and DTT (1 mM) was added to keep redox potential constant during binding experiments. Photo-affinity pull down samples were submitted to denaturing sodium dodecyl sulfate polyacrylamide gel electrophoresis (PAGE). For immunoblotting according to earlier published protocols (Gruber et al., [2007]; Bergmayr et al., [2013]) proteins were semi-dry transferred onto a nitrocellulose membrane 0.45 μM (Amersham Protran, GE Healthcare, Austria) using a Fast Semi-dry blotter (Bio-Rad) at 0.25 mA per gel for 1 h. Primary rabbit anti-GFP antibody (1:5,000) was from Invitrogen (A6455), rabbit anti-GST antibody (1:2,500) from Abcam (ab9085), and mouse anti-human calcineurin subunit A antibody (1:2,000) clone BE2.1 from eBioscience. Secondary ECL anti-mouse (NA931V) or ECL anti-rabbit (NA934VS) IgG antibodies (1:10,000) were conjugated with horse radish peroxidase (GE Healthcare). Chemo-luminescence signals were detected on an imaging system FluorChem HD2 (Alpha Innotech, CA, United States). For silver staining protein gels were treated immediately after electrophoresis with fixing solution EtOH/ddH2O/acetic acid 50/40/10% (v/v/v) for 20 min. Gels had to be washed acid free, first with 50% (v/v) EtOH for 10 min and with ddH2O for 2 h. Gels were exposed to sensitization buffer 0.025% Na2S2O3 in ddH2O for 3 min, followed by 2 min wash with ddH2O. Gels were silver loaded using a 0.15% AgNO3 solution for 45 min in the dark. The protein bands were stained in development buffer formaldehyde/Na2CO3 0.04/2% (v/w) under rigorous shaking. The reaction was quenched with 5% (v/v) acetic acid solution and the gels were stored until further processing in the stopping buffer at 4°C. Pixel quantification was carried out using ImageJ v1.47 (National Institute for Health).
Biotin-LC-LC-labeled (ThermoFisher) peptides (1–5 nmoles) with or without (non-biotinylated) competitor (20–100-fold molar excess) were incubated with Jurkat cell or murine splenocyte cell lysates (150–500 μg proteins) for 2 h at 4°C in the presence of protease inhibitors. UV-activation of photo-crosslinking moiety benzophenone was induced by irradiation at 360 nm on ice for 15 min (Stratalinker, Stratagene, CA, United States). […]

No end group written: not given here.

On to “CGETCVGGTCNTPGCKCSWPVCTRNGLPV (also: bicyclic or more (positions not given here)) [[T20K]kB1, synthetic cyclotide drug candidate, Thr20 to Lys mutant of kalata B1]”, for which the “regulatory cytokines such as IL-2 in T-lymphocytes of treated animals” value in the experiment with IL-2 in T-lymphocytes is “significantly downregulated”. In the experiment with EAE disease in mice (oral administration, ref Thell et al., 2016), the “progression of typical symptoms in mouse model of multiple sclerosis” value is given as “halted the progression of typical symptoms”. Moreover, the “symptoms of the EAE disease in mice” value in the experiment on EAE disease in mice (reported, reference not given) is listed as “reduce the symptoms of the EAE disease in mice”. Besides, the “competition effect for 14-3-3 proteins (order)” value in experiment [1] is “competition effect in the order [T20K]kB1 < [T20K,W23Bpa]kB1 < R18”.

The values are drawn from article PMC5641551, “Chemical Proteomics for Target Discovery of Head-to-Tail Cyclized Mini-Proteins” (Frontiers in Chemistry, 2017).
